From paper PMC3415135 (Evidence-based Complementary and Alternative Medicine : eCAM, 2012)
≈ marks a conversion by molar mass, not a printed value.

Key:
Assay type in all cases: biochemical
[1] = molecular target: T1, HGVPLA2 (human group V PLA2) (Homo sapiens, UniProt P39877); experiment: enzyme inhibition, Cayman kit
T1 construct: gene PLA2G5; commercial assay, Cayman Chemical
T1 sequence (P39877 21-138): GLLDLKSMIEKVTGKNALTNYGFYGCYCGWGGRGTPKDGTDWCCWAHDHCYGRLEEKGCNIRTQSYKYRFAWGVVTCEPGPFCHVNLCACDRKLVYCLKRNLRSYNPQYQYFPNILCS
Text: enzyme inhibition, Cayman kit on HGVPLA2 (human group V PLA2)

[2] = molecular target: T2, LOX 15HRC (Lipoxygenase 15hrc); experiment: enzyme inhibition, Cayman kit; conditions: per manufacturer's instructions
T2 construct: gene ALOX15; commercial, Cayman Chemical
Text: enzyme inhibition, Cayman kit on LOX 15HRC (Lipoxygenase 15hrc)

COX-2 (cyclooxygenase-2) = molecular target: T3, COX-2 (cyclooxygenase-2); experiment: enzyme inhibition, Cayman kit; conditions: per manufacturer's instructions
T3 construct: gene PTGS2; commercial, Cayman Chemical
Text: enzyme inhibition, Cayman kit on COX-2 (cyclooxygenase-2)

[3] = molecular target: T4, BPPLA2 (bovine pancreas PLA2) (Bos taurus, UniProt P00593); experiment: enzyme inhibition, Cayman kit
T4 construct: gene PLA2G1B; native pancreatic enzyme, purchased from Sigma-Aldrich
Text: enzyme inhibition, Cayman kit on BPPLA2 (bovine pancreas PLA2)

Apis = Apis (Apis mellifera, UniProt P00630)
Chain of Apis (P00630 34-167 limits assumed): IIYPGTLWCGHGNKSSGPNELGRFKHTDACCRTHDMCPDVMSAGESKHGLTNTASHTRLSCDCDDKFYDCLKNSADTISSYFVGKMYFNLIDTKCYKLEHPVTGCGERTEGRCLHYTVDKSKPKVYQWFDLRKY

T4 sequence (P00593 23-145): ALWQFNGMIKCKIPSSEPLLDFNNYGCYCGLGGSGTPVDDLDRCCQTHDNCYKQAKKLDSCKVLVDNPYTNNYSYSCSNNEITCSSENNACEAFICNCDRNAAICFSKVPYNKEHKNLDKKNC

Structure (SMILES)	IC50 [1] [µM]	IC50 [2] [µg/mL]	IC50 (COX-2 (cyclooxygenase-2)) [µg/mL]	IC50 [3] [µM]	hydrolysis, A425 (Apis)
CC1(C)Oc2cc3occ(-c4ccc5c(c4)OCO5)c(=O)c3c(O)c2C[C@H]1O [harpalycin 2]	71.7	55.96 (≈ 146 µM)	32.73 (≈ 85.6 µM)	31.1	–
CCCCCCCC(=O)Oc1cc(C(=O)O)ccc1[N+](=O)[O-] [4-nitro-3-octanoyloxy-benzoic acid]	–	–	–	–	as a direct result of the cleavage of the synthetic substrate
